Results taken from patent publication US10526320B2, “Pyrrolidine derivatives as PPAR agonists” (GUANGDONG RAYNOVENT BIOTECH CO., LTD., priority 2016, dated 2020).

Each compound was assayed against T1, PPAR Alpha (Homo sapiens, UniProt Q07869) (assay: PathHunter NHR protein interaction / nuclear translocation agonist test, PPAR Alpha). Details: agonist mode; read-out: PPAR Alpha EC50.
T1 sequence (Q07869 1-468): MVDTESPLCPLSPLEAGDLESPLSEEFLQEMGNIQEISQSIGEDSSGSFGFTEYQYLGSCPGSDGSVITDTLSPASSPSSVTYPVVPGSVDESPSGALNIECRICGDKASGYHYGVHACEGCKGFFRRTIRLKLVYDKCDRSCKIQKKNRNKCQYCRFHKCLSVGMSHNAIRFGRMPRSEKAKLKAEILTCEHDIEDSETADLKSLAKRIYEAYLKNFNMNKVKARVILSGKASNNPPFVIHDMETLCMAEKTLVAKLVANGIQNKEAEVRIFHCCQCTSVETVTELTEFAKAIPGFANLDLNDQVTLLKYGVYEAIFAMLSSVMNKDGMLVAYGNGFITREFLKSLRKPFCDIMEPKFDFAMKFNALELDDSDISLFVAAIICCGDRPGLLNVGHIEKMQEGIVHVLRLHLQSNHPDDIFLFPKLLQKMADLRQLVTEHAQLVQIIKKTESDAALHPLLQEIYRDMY
Type: cell-based

SMILES	EC50 [µM]
Cc1cc(CCC2CN(C(=O)Oc3ccccc3)CC2C(=O)c2ccc(Cl)s2)cc(C)c1OC(C)(C)C(=O)O (single isomer, unassigned) [Compound 47]	< 0.1
CSc1ccc(C(=O)C2CN(C(=O)Oc3ccc(Cl)cc3)CC2c2cc(C)c(OC(C)(C)C(=O)O)c(C)c2)cc1 (single isomer, unassigned) [Compound 14]	< 0.1
CSc1ccc(C(=O)[C@H]2CNC[C@@H]2CCc2cc(C)c(OC(C)(C)C(=O)O)c(C)c2)cc1 (racemic) [Compound 56]	> 0.25
CSc1ccc(C(=O)C2CN(C(=O)OC(C)C)CC2CCc2cc(C)c(OC(C)(C)C(=O)O)c(C)c2)cc1 (single isomer, unassigned) [Compound 58]	0.1 to 0.15
Cc1cc(CC2CN(C(=O)Oc3ccccc3)CC2C(=O)c2ccc(Cl)cc2)cc(C)c1OC(C)(C)C(=O)O (single isomer, unassigned) [Compound 70]	< 0.1

Same assay, conditions: read-out: PPAR Alpha Maximum Activation Response %

SMILES	Emax [%]
Cc1cc(CCC2CN(C(=O)Oc3ccccc3)CC2C(=O)c2ccc(Cl)s2)cc(C)c1OC(C)(C)C(=O)O (single isomer, unassigned) [Compound 47]	80 to 100
CSc1ccc(C(=O)[C@H]2CNC[C@@H]2CCc2cc(C)c(OC(C)(C)C(=O)O)c(C)c2)cc1 (racemic) [Compound 56]	< 50
Cc1cc(CC[C@H]2CN(C(=O)Oc3ccccc3)C[C@@H]2C(=O)c2ccc([S+](C)[O-])cc2)cc(C)c1OC(C)(C)C(=O)O (mixture of isomers) [Compound 67]	80 to 100
CSc1ccc(C(=O)C2CN(C(=O)OC(C)C)CC2CCc2cc(C)c(OC(C)(C)C(=O)O)c(C)c2)cc1 (single isomer, unassigned) [Compound 58]	80 to 100
Cc1cc(CC2CN(C(=O)Oc3ccccc3)CC2C(=O)c2ccc(Cl)cc2)cc(C)c1OC(C)(C)C(=O)O (single isomer, unassigned) [Compound 70]	80 to 100

Each compound was assayed against T2, PPAR Delta (Homo sapiens, UniProt Q03181) (assay: PathHunter NHR protein interaction / nuclear translocation agonist test, PPAR Delta). Details: agonist mode; read-out: PPAR Delta EC50.
T2 sequence (Q03181 1-441): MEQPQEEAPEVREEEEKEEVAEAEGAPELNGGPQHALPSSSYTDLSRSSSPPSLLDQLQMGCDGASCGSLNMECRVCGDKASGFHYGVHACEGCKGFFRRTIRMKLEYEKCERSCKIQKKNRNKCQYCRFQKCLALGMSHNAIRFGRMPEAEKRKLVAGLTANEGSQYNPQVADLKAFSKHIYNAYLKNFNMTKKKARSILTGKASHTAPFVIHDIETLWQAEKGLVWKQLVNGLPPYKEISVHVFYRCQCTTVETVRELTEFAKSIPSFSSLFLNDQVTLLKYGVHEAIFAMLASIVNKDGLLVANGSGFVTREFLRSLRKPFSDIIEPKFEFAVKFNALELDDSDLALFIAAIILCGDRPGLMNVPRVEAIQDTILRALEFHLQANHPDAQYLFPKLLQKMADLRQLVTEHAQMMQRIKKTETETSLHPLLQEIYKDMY
Type: cell-based

SMILES	EC50 [µM]
Cc1cc(CCC2CN(C(=O)Oc3ccccc3)CC2C(=O)c2ccc(Cl)s2)cc(C)c1OC(C)(C)C(=O)O (single isomer, unassigned) [Compound 47]	< 0.1
CSc1ccc(C(=O)C2CN(C(=O)Oc3ccc(Cl)cc3)CC2c2cc(C)c(OC(C)(C)C(=O)O)c(C)c2)cc1 (single isomer, unassigned) [Compound 14]	< 0.1
CSc1ccc(C(=O)[C@H]2CNC[C@@H]2CCc2cc(C)c(OC(C)(C)C(=O)O)c(C)c2)cc1 (racemic) [Compound 56]	0.2 to 0.25
Cc1cc(CC[C@H]2CN(C(=O)Oc3ccccc3)C[C@@H]2C(=O)c2ccc([S+](C)[O-])cc2)cc(C)c1OC(C)(C)C(=O)O (mixture of isomers) [Compound 67]	> 0.25
CSc1ccc(C(=O)C2CN(C(=O)OC(C)C)CC2CCc2cc(C)c(OC(C)(C)C(=O)O)c(C)c2)cc1 (single isomer, unassigned) [Compound 58]	< 0.1
Cc1cc(CC2CN(C(=O)Oc3ccccc3)CC2C(=O)c2ccc(Cl)cc2)cc(C)c1OC(C)(C)C(=O)O (single isomer, unassigned) [Compound 70]	< 0.1

Same assay, conditions: read-out: PPAR Delta Maximum Activation Response %

SMILES	Emax [%]
CSc1ccc(C(=O)[C@H]2CNC[C@@H]2CCc2cc(C)c(OC(C)(C)C(=O)O)c(C)c2)cc1 (racemic) [Compound 56]	50 to 80
Cc1cc(CC[C@H]2CN(C(=O)Oc3ccccc3)C[C@@H]2C(=O)c2ccc([S+](C)[O-])cc2)cc(C)c1OC(C)(C)C(=O)O (mixture of isomers) [Compound 67]	80 to 100
CSc1ccc(C(=O)C2CN(C(=O)OC(C)C)CC2CCc2cc(C)c(OC(C)(C)C(=O)O)c(C)c2)cc1 (single isomer, unassigned) [Compound 58]	50 to 80

Same assay, conditions: relative to known PPARδ agonist L-165,041 = 100%; read-out: PPAR Delta Maximum Activation Response %

SMILES	Emax [%]
Cc1cc(CCC2CN(C(=O)Oc3ccccc3)CC2C(=O)c2ccc(Cl)s2)cc(C)c1OC(C)(C)C(=O)O (single isomer, unassigned) [Compound 47]	80 to 100
Cc1cc(CC2CN(C(=O)Oc3ccccc3)CC2C(=O)c2ccc(Cl)cc2)cc(C)c1OC(C)(C)C(=O)O (single isomer, unassigned) [Compound 70]	80 to 100

What follows are compounds tested against T3, PPAR Gamma (Homo sapiens, UniProt P37231) (assay: PathHunter NHR protein interaction / nuclear translocation agonist test, PPAR Gamma). Details: agonist mode; read-out: PPAR Gamma EC50.
T3 sequence (P37231 1-505): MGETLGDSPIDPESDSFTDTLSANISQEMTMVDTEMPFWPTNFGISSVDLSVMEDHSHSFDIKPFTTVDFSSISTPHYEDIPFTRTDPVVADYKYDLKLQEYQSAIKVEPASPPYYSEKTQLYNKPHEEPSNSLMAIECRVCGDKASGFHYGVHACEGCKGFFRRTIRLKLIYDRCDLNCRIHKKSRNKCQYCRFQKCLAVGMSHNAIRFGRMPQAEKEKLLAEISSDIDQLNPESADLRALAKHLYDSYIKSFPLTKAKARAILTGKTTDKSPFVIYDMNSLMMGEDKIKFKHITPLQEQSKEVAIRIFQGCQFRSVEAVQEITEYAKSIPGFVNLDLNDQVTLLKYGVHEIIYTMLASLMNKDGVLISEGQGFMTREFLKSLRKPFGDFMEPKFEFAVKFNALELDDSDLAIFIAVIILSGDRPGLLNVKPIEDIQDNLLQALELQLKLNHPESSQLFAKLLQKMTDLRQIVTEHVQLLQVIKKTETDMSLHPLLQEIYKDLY
Type: cell-based

SMILES	EC50 [µM]
Cc1cc(CCC2CN(C(=O)Oc3ccccc3)CC2C(=O)c2ccc(Cl)s2)cc(C)c1OC(C)(C)C(=O)O (single isomer, unassigned) [Compound 47]	0.15 to 0.2
CSc1ccc(C(=O)C2CN(C(=O)Oc3ccc(Cl)cc3)CC2c2cc(C)c(OC(C)(C)C(=O)O)c(C)c2)cc1 (single isomer, unassigned) [Compound 14]	> 0.25
CSc1ccc(C(=O)[C@H]2CNC[C@@H]2CCc2cc(C)c(OC(C)(C)C(=O)O)c(C)c2)cc1 (racemic) [Compound 56]	> 0.25
Cc1cc(CC[C@H]2CN(C(=O)Oc3ccccc3)C[C@@H]2C(=O)c2ccc([S+](C)[O-])cc2)cc(C)c1OC(C)(C)C(=O)O (mixture of isomers) [Compound 67]	> 0.25
CSc1ccc(C(=O)C2CN(C(=O)OC(C)C)CC2CCc2cc(C)c(OC(C)(C)C(=O)O)c(C)c2)cc1 (single isomer, unassigned) [Compound 58]	0.2 to 0.25
Cc1cc(CC2CN(C(=O)Oc3ccccc3)CC2C(=O)c2ccc(Cl)cc2)cc(C)c1OC(C)(C)C(=O)O (single isomer, unassigned) [Compound 70]	0.15 to 0.2

Same assay, conditions: read-out: PPAR Gamma Maximum Activation Response %

SMILES	Emax [%]
CSc1ccc(C(=O)[C@H]2CNC[C@@H]2CCc2cc(C)c(OC(C)(C)C(=O)O)c(C)c2)cc1 (racemic) [Compound 56]	< 50
CSc1ccc(C(=O)C2CN(C(=O)OC(C)C)CC2CCc2cc(C)c(OC(C)(C)C(=O)O)c(C)c2)cc1 (single isomer, unassigned) [Compound 58]	50 to 80

Same assay, conditions: relative to known PPARγ agonist Troglitazone = 100%; read-out: PPAR Gamma Maximum Activation Response %

SMILES	Emax [%]
Cc1cc(CCC2CN(C(=O)Oc3ccccc3)CC2C(=O)c2ccc(Cl)s2)cc(C)c1OC(C)(C)C(=O)O (single isomer, unassigned) [Compound 47]	80 to 100
Cc1cc(CC[C@H]2CN(C(=O)Oc3ccccc3)C[C@@H]2C(=O)c2ccc([S+](C)[O-])cc2)cc(C)c1OC(C)(C)C(=O)O (mixture of isomers) [Compound 67]	80 to 100
Cc1cc(CC2CN(C(=O)Oc3ccccc3)CC2C(=O)c2ccc(Cl)cc2)cc(C)c1OC(C)(C)C(=O)O (single isomer, unassigned) [Compound 70]	80 to 100
